Test results taken from patent US20250134884A1, “METHOD AND PHARMACEUTICAL COMPOSITION FOR TREATING TYPE II DIABETES” (LUMISTAR BIOTECHNOLOGY, INC., priority 2023, published 2025).

Legend:
[1] = system: MIN6 cells; assay: Insulin secretion by hINS-GLuc luciferase reporter in MIN6 β cells under high glucose; type: cell-based, mouse; settings: 20 mM glucose; for insulin secretion compared to the DMSO control group (luminescence signals from secreted insulin): MIN6 cells, FIG. 4; for position among the top five compounds with significant increase in insulin secretion relative to high glucose stimulation: Table 2
Protocol: With the inclusion of a luciferase-tagged insulin construct, hINS-GLuc allows for rapid quantification of secreted insulin in the supernatant for drug screening, unlike the traditional method of measuring insulin via ELISA. This quantification is achieved by measuring the luminescence (relative light units, RLU) upon adding the luciferin of coelenterazine.
For measuring insulin secretion, the medium will first be removed, and MIN6 cells will then be rinsed in Krebs-Ringer buffer (119 mM NaCl, 4.74 mM KCl, 2.54 mM CaCl2), 1.19 mM MgSO4, 1.19 mM KH2PO4, 25 mM NaHCO3, 10 mM Hepes, and 0.1% BSA, pH 7.4) before incubation with or without 20 mM glucose in Krebs-Ringer buffer. Compounds will be added at a final concentration of 25 μM for two hours. At the end of the incubation period, the buffer will be removed, and the cells will then be briefly centrifuged, with the supernatant collected for measuring insulin secretion. Measurement of insulin secretion and C-peptide release will be performed using either an insulin or C-peptide ELISA kit (FIG. 1A), according to the manufacturer's instructions (Mercodia), or by measuring luminescence after adding luciferin (FIGS. 2A, 2B, and 4).
With the establishment of reporter platform in β cell lines, 50 drugs screening with compounds associated with pathways associated with metabolic diseases are conducted. This included inhibitor or agonist against Glucagon-like peptide-1 (GLP-1), Cytochrome c oxidase (COX), Phosphodiesterase (PDE), AMP activated protein kinase (AMPK), dipeptidyl peptidase-4 (DPP-4), calcium and potassium channels, 5-hydroxytryptamine (5-HT) or estrogen/progestogen receptors. As compounds can either “trigger” insulin secretion (i.e., in low glucose condition) or “amplify” insulin secretion (i.e., in high glucose condition). To mimic hyperglycemic condition, the compounds that may amplify insulin secretion under high glucose conditions have been chosen.
To enable this screen, we adapted a 96 well format with β cells plated 74 hours prior to compound challenge in triplicates. Post-stimulation, supernatant was aliquoted and transferred into at least 2 empty plates for either storage or luciferase measurement with the addition of coelenterazine.
FIG. 4 is a relative light unit graph depicting the ability of various 5-HT1A receptor antagonists to induce insulin secretion in MIN6 cells in the presence of a high concentration of glucose.

[2] = system: MIN6 cells; assay: Single cell Ca2+ flux monitoring with K-GECO1 reporter; type: cell-based, mouse; settings: 20 mM glucose and 25 μM WAY-100635 Maleate, FIG. 3C
From the text: One component of the reporter construct is a red fluorescent protein (RFP)-based Ca^2+ indicator (i.e., K-GECO1, reporter with an affinity for calcium ion) that is expressed within the cytoplasm. In this example, an inverted microscope (D1, Zeiss) equipped with a 63 Å˜objective lens (NA 1.4, Zeiss) and a multiwavelength LED light source (pE-4000, CoolLED) will be used. Blue (470 nm) and green (550 nm) excitation will be used to illuminate ChR2-EYFP and K-GECO1, respectively. The green fluorescent protein (GFP) filter set, and the red fluorescent protein (RFP) filter set will be used to confirm the expression of ChR2-EYFP and K-GECO1 in cells. […]
This allowed the detection of Ca^2+ influx into β cell as a consequence of calcium channel opening. β cells expressing the reporter construct were first stimulated with glucose (e.g., 20 mM glucose) to establish a baseline profile of Ca^2+ influx over time. […] FIG. 3A is the fluorescence intensity graph using the K-GECO1 reporter gene in Min6 cells to monitor glucose stimulation; and FIG. 3B is a representative image using the K-GECO1 reporter gene in Min6 cells after glucose stimulation. In FIG. 3A, the horizontal axis represents time (minutes), the vertical axis represents fluorescence intensity, and an arrow represents the point of stimulation and lines represent individual cells. […]

| Compound | insulin secretion compared to the DMSO control group (luminescence signals from secreted insulin) [1] | position among the top five compounds with significant increase in insulin secretion relative to high glucose stimulation ([1]; compound 25 μM, two hours) | Ca2+ influx profile (K-GECO1 fluorescence intensity) [2] | insulin secretion relative to high glucose stimulation alone (luminescence, RLU) ([1]; compound 25 μM, two hours, reporter expressing β cells, FIG. 2A) |
| --- | --- | --- | --- | --- |
| CCC(=O)c1c(O)cc(O)cc1O [Flopropione] | did not show a significant increase | – | – | – |
| CC(C)Cn1c(=O)n(C)c(=O)c2[nH]cnc21 [IBMX] | – | 4 | – | – |
| O=c1c(O)c(-c2ccc(O)cc2)oc2cc(O)cc(O)c12 [Kaempferol] | – | 2 | – | – |
| C[C@H](CN(C(=O)c1ccc(C#N)cc1)c1ccccn1)N1CCN(c2cccc3c2OCCO3)CC1 [Lecozotan] | did not show a significant increase | – | – | – |
| Cc1[nH]c(=O)c(C#N)cc1-c1ccncc1 [Milrinone] | – | 5 | – | – |
| COc1ccccc1N1CCN(CCN(C(=O)C2CCCCC2)c2ccccn2)CC1.O=C(O)/C=C\C(=O)O [WAY-100635 maleate] | significantly increased | 3 | significant change in Ca^2+ influx profile | promotes insulin secretion |
| Exendin-4 | – | 1 | – | – |
